Measured values published in the NIST ThermoML archive (doi:10.1016/j.fluid.2019.112241).
Where “and” joins values, the source holds several entries; their conditions need not be identical. Equal values may be shown once.

Conditions: Liquid, Transpiration method

CCCCN(CCCC)C(C)=O [N,N-dibutylacetamide]
Conditions	vapor or sublimation pressure
291.8 K	0.0013 kPa
298.8 K	0.00247 kPa
300.9 K	0.00292 kPa
301.8 K	0.00324 kPa
303.9 K	0.00402 kPa
306.6 K	0.00505 kPa
306.7 K	0.00514 kPa
308.8 K	0.00635 kPa
312.5 K	0.00844 kPa
315.7 K	0.0107 kPa
317.5 K	0.01304 kPa
320.4 K	0.01631 kPa
320.7 K	0.01642 kPa
320.8 K	0.01653 kPa
322.6 K	0.01907 kPa
323.6 K	0.02074 kPa
325.6 K	0.02381 kPa
327.2 K	0.02708 kPa
327.6 K	0.0289 kPa
330.6 K	0.03472 kPa and 0.03551 kPa
333.3 K	0.04451 kPa
334.8 K	0.04701 kPa
335.7 K	0.05254 kPa
337.5 K	0.05938 kPa
340.7 K	0.0733 kPa
343.6 K	0.09061 kPa

CCN(CC)C(C)=O [N,N-diethylacetamide]
Conditions	vapor or sublimation pressure
293.2 K	0.05427 kPa
295.7 K	0.06498 kPa
298.1 K	0.07907 kPa
300.7 K	0.09611 kPa
303.3 K	0.1134 kPa
308.2 K	0.1595 kPa and 0.1564 kPa
310.6 K	0.1826 kPa
313.1 K	0.218 kPa
313.2 K	0.22 kPa
318.2 K	0.3145 kPa and 0.3097 kPa
323.1 K	0.4179 kPa
323.3 K	0.4212 kPa
325.7 K	0.4988 kPa
328.2 K	0.5921 kPa and 0.5695 kPa
330.7 K	0.6838 kPa
333.1 K	0.8078 kPa
333.2 K	0.771 kPa
335.7 K	0.882 kPa
338.3 K	1.032 kPa

CC(=O)N(C)C [N,N-dimethylethanamide]
Conditions	vapor or sublimation pressure
273.3 K	0.03543 kPa and 0.03607 kPa and 0.035 kPa
274.7 K	0.03924 kPa
275.9 K	0.04222 kPa
276.5 K	0.04528 kPa
276.9 K	0.04668 kPa
277.3 K	0.05063 kPa
278.2 K	0.05175 kPa
278.6 K	0.05303 kPa
279.7 K	0.058 kPa
281.3 K	0.06713 kPa and 0.07108 kPa
281.4 K	0.06481 kPa
281.9 K	0.06864 kPa
282.4 K	0.07295 kPa
283 K	0.07741 kPa
285.3 K	0.0977 kPa
285.8 K	0.09266 kPa
286.4 K	0.09668 kPa
287.3 K	0.1021 kPa
288.2 K	0.1121 kPa
288.3 K	0.1147 kPa
289.3 K	0.1307 kPa
290.2 K	0.1314 kPa
290.8 K	0.1301 kPa
291.2 K	0.1351 kPa
291.3 K	0.1465 kPa
291.8 K	0.1543 kPa
293.2 K	0.1571 kPa
293.3 K	0.1763 kPa
294.2 K	0.1744 kPa
296.2 K	0.2041 kPa
296.3 K	0.2 kPa
297.2 K	0.2169 kPa
297.3 K	0.2291 kPa
298.1 K	0.2275 kPa
298.2 K	0.2301 kPa
300.2 K	0.2612 kPa
300.7 K	0.2666 kPa and 0.2829 kPa
301.3 K	0.2983 kPa
302.2 K	0.3174 kPa
302.7 K	0.3279 kPa
303 K	0.3058 kPa
303.2 K	0.3248 kPa
304.7 K	0.3758 kPa
305.2 K	0.3538 kPa and 0.3944 kPa
305.6 K	0.3795 kPa
308 K	0.4422 kPa
308.1 K	0.4305 kPa
310.6 K	0.5041 kPa
313.1 K	0.6025 kPa
313.2 K	0.6035 kPa
315.7 K	0.711 kPa
316.4 K	0.7274 kPa
318.2 K	0.8426 kPa
320.8 K	0.9968 kPa
323.2 K	1.115 kPa
323.3 K	1.128 kPa
325.8 K	1.285 kPa
328.3 K	1.481 kPa

CCCCCCN(CCCCCC)C(C)=O [N,N-dihexylacetamide]
Conditions	vapor or sublimation pressure [kPa]
319.4 K	0.0004
322.4 K	0.00053
325.5 K	0.00071
328.4 K	0.00091
329.2 K	0.00098
331.5 K	0.00123
332.4 K	0.0013
332.5 K	0.00136
335.5 K	0.0017
338.5 K	0.00228
342.2 K	0.00302
346.4 K	0.0043
349.5 K	0.0056
350.4 K	0.00612
353.3 K	0.00738
353.4 K	0.00736
356.3 K	0.00918
359.2 K	0.01148
360.3 K	0.01247
362.3 K	0.01466
364.2 K	0.01684
